# Laboratory results taken from the NIST ThermoML archive (doi:10.1016/j.fluid.2005.05.012).
# Values joined by “and” are separate entries in the source; they are usually repeats but may differ in a detail not shown here. Equal entries are not always repeated. ± gives the expanded uncertainty stated by the source.
# Tests used:
# [1] = 101.33 kPa, Liquid
# [2] = xn = mol fraction of the nth substance listed; conditions: 101.33 kPa, Liquid, x1 = 1
SMILES,mass density ([1]; 293.15 K),viscosity ([1]; 293.15 K),mass density ([1]; 298.15 K),viscosity ([1]; 298.15 K),mass density ([1]; 303.15 K),viscosity ([1]; 303.15 K),mass density ([2]; 293.15 K),viscosity ([2]; 293.15 K),mass density ([2]; 298.15 K),viscosity ([2]; 298.15 K),mass density ([2]; 303.15 K),viscosity ([2]; 303.15 K)
CC(C)CO [2-methyl-1-propanol],801.58 ± 0.57 kg/m3,3.994 ± 0.044 mPa·s,798.09 ± 0.57 kg/m3,3.334 ± 0.037 mPa·s,794.09 ± 0.58 kg/m3,2.794 ± 0.032 mPa·s,,,,,,
CN1CCNCC1 [N-methylpiperazine],903.8 ± 0.36 kg/m3 and 903.79 ± 0.36 kg/m3 and 903.78 ± 0.36 kg/m3,2.1 ± 0.024 mPa·s,899.8 ± 0.37 kg/m3,1.841 ± 0.021 mPa·s,894.52 ± 0.38 kg/m3 and 894.54 ± 0.38 kg/m3 and 894.55 ± 0.38 kg/m3,1.624 ± 0.019 mPa·s,,,,,,
CCCCO [butan-1-ol],809.97 ± 0.55 kg/m3,2.938 ± 0.033 mPa·s,806.15 ± 0.56 kg/m3,2.572 ± 0.029 mPa·s,802.14 ± 0.57 kg/m3,2.271 ± 0.026 mPa·s,,,,,,
CCO [ethanol],789.32 ± 0.59 kg/m3,1.17 ± 0.014 mPa·s,785.06 ± 0.6 kg/m3,1.078 ± 0.013 mPa·s,780.68 ± 0.61 kg/m3,0.982 ± 0.012 mPa·s,,,,,,
CO [methanol],791.09 ± 0.59 kg/m3,0.593 ± 0.008 mPa·s,786.48 ± 0.6 kg/m3,0.551 ± 0.008 mPa·s,781.22 ± 0.61 kg/m3,0.509 ± 0.008 mPa·s,,,,,,
CCCO [propan-1-ol],803.79 ± 0.56 kg/m3,2.194 ± 0.025 mPa·s,799.74 ± 0.57 kg/m3,1.945 ± 0.023 mPa·s,795.68 ± 0.58 kg/m3,1.73 ± 0.02 mPa·s,,,,,,
CCCO [propan-1-ol] + CN1CCNCC1,,,,,,,803.79 ± 0.56 kg/m3,2.194 ± 0.025 mPa·s,799.74 ± 0.57 kg/m3,1.945 ± 0.023 mPa·s,795.68 ± 0.58 kg/m3,1.73 ± 0.02 mPa·s
CC(C)O [propan-2-ol],785.84 ± 0.6 kg/m3,2.405 ± 0.028 mPa·s,781.3 ± 0.61 kg/m3,2.062 ± 0.024 mPa·s,777.41 ± 0.61 kg/m3,1.782 ± 0.021 mPa·s,,,,,,
CC(C)O [propan-2-ol] + CN1CCNCC1,,,,,,,785.84 ± 0.6 kg/m3,2.405 ± 0.028 mPa·s,781.3 ± 0.61 kg/m3,2.062 ± 0.024 mPa·s,777.41 ± 0.61 kg/m3,1.782 ± 0.021 mPa·s
